≈ marks a conversion by molar mass, not a printed value. Where “and” joins values, the source holds several entries; their conditions need not be identical. Equal values may be shown once. Each block holds one compound with its values, some of them ahead of it.
What was measured:
Experiment in all cases: ≥ marks a high value that may be exact or a test limit, other limits are often not marked, values filed in µg/mL are converted to µM
[1] = test system: Aggregatibacter actinomycetemcomitans ATCC 29522
[2] = test system: Streptococcus sanguinis ATCC 10556
[3] = test system: Staphylococcus aureus ATCC 25923
[4] = test system: Escherichia coli ATCC 25922
[5] = test system: Streptococcus gordonii ATCC 10558
[6] = test system: Streptococcus mutans UA159
[7] = test system: Streptococcus mutans GS-5
[8] = test system: Streptococcus sanguinis ATCC 49295
Candida albicans MDM8 = test system: Candida albicans MDM8
Escherichia coli SBS 363 = test system: Escherichia coli SBS 363
Micrococcus luteus A270 = test system: Micrococcus luteus A270
Staphylococcus aureus = test system: Staphylococcus aureus
Vibrio fluvialis = test system: Vibrio fluvialis
Streptococcus pyogenes = test system: Streptococcus pyogenes
Escherichia coli = test system: Escherichia coli
Vibrio parahaemolyticus = test system: Vibrio parahaemolyticus
Vibrio alginolyticus = test system: Vibrio alginolyticus
Aeromonas hydrophila = test system: Aeromonas hydrophila
Candida krusei CBS 573 = test system: Candida krusei CBS 573
[9] = test system: Candida albicans ATCC 10231
[10] = test system: Candida parapsilosis CBS 604
[11] = test system: Saccharomyces cerevisiae SZMC 0644
[12] = test system: Staphylococcus epidermidis 1457
[13] = test system: Klebsiella pneumoniae CGMCC 1.1736
[14] = test system: Klebsiella pneumoniae ATCC 13883
[15] = test system: Staphylococcus aureus UAMS-1
[16] = test system: Staphylococcus aureus CGMCC 1.8721
Escherichia coli K-12 = test system: Escherichia coli K-12
[17] = test system: Acinetobacter baumannii B28-16
[18] = test system: Pseudomonas aeruginosa E411-17
[19] = test system: Enterococcus faecium ATCC 51559
Escherichia coli E423-17 = test system: Escherichia coli E423-17
[20] = test system: Staphylococcus epidermidis CGMCC 1.4260
[21] = test system: Escherichia coli CGMCC 1.8732
[22] = test system: Staphylococcus aureus USA 300
[23] = test system: Klebsiella pneumoniae E406-17
[24] = test system: Pseudomonas aeruginosa CGMCC 1.2421
[25] = test system: Pseudomonas aeruginosa PAO1
[26] = test system: Enterococcus faecium V284-17
[27] = test system: Fusarium solani MTCC 10158

Structure (SMILES): CC(C)C[C@H](NC(=O)[C@H](CCCN=C(N)N)NC(=O)[C@H](Cc1ccccc1)NC(=O)[C@H](Cc1ccccc1)NC(=O)[C@@H](N)[C@@H](C)O)C(=O)N[C@@H](Cc1ccccc1)C(=O)N[C@@H](CC(N)=O)C(=O)N[C@@H](CCCN=C(N)N)C(=O)N[C@@H](CO)C(=O)N[C@@H](Cc1ccccc1)C(=O)N[C@H](C(=O)NCC(=O)N[C@@H](CCCN=C(N)N)C(=O)N[C@@H](CCCN=C(N)N)C(=O)N[C@@H](CCCN=C(N)N)C(=O)N[C@@H](CCCN=C(N)N)C(=O)N[C@@H](CO)C(=O)N[C@H](C(=O)N[C@@H](CCC(N)=O)C(=O)N[C@@H](Cc1c[nH]c2ccccc12)C(=O)N[C@@H](CS)C(=O)N[C@@H](C)C(=O)O)C(C)C)[C@@H](C)O [TFFRLFNRSFTGRRRRSVQWCA]
MIC [5]: 17.8 µM (≈ 49.8 µg/mL) | MIC [6]: 3.82 µM (≈ 10.7 µg/mL) | MIC [7]: 4.46 µM (≈ 12.4 µg/mL) | MIC [8]: ≥ 35.7 µM

Structure (SMILES): CC[C@H](C)[C@H](NC(=O)[C@H](CC(C)C)NC(=O)[C@@H]1CCCN1C(=O)[C@H](CC(C)C)NC(=O)[C@H](CC(C)C)NC(=O)[C@@H](N)CO)C(=O)N[C@@H](CCCN=C(N)N)C(=O)N[C@@H](CCCCN)C(=O)N[C@@H](CC(C)C)C(=O)N[C@H](C(=O)N[C@H](C(N)=O)[C@@H](C)O)[C@@H](C)CC [SLLPLIRKLIT]
MIC (Candida albicans MDM8): 1.56 µM (≈ 1.97 µg/mL) | MIC (Escherichia coli SBS 363): 3.12 µM (≈ 3.95 µg/mL) | MIC (Micrococcus luteus A270): 1.56 µM (≈ 1.97 µg/mL)

Structure (SMILES): CC[C@H](C)[C@H](N)C(=O)N[C@@H](C)C(=O)NCC(=O)N[C@@H](C)C(=O)N[C@@H](Cc1cnc[nH]1)C(=O)N[C@@H](CCCCN)C(=O)N[C@H]1CSSC[C@@H](C(=O)N[C@@H](CC(N)=O)C(=O)N[C@@H](CO)C(=O)N2CCC[C@H]2C(=O)N[C@@H](CC(N)=O)C(=O)O)NC(=O)[C@@H]2CSSC[C@H](NC(=O)[C@@H]3CCCN3C(=O)[C@H](CCCCN)NC1=O)C(=O)N[C@@H](Cc1ccc(O)cc1)C(=O)NCC(=O)N[C@@H](Cc1ccc(O)cc1)C(=O)N[C@@H](CCCCN)C(=O)N[C@@H]([C@@H](C)O)C(=O)N[C@@H](CC(N)=O)C(=O)N[C@@H](CO)C(=O)N2 [IAGAHKCKPCYGYKTNSCCNSPN]
MIC (Candida krusei CBS 573): 20.3 µM (≈ 49.9 µg/mL) | MIC [9]: 20.3 µM (≈ 49.9 µg/mL) | MIC [10]: 20.3 µM (≈ 49.9 µg/mL) | MIC [11]: 20.3 µM (≈ 49.9 µg/mL)

Now from value to compound, other results behind:

MIC [1]: 11.4 µM (≈ 31.2 µg/mL) | MIC [2]: 5.7 µM (≈ 15.6 µg/mL) | MIC [3]: 2.85 µM (≈ 7.8 µg/mL) | MIC [4]: 0.71 µM (≈ 1.94 µg/mL)
Structure (SMILES): CC[C@H](C)[C@H](NC(C)=O)C(=O)N[C@@H](Cc1c[nH]c2ccccc12)C(=O)N[C@@H](CC(C)C)C(=O)N[C@H](C(=O)N[C@@H](C)C(=O)N[C@@H](CC(C)C)C(=O)N[C@@H](CCCCN)C(=O)N[C@@H](Cc1ccccc1)C(=O)N[C@@H](CC(C)C)C(=O)NCC(=O)N[C@@H](CCCCN)C(=O)N[C@@H](CC(N)=O)C(=O)N[C@@H](CC(C)C)C(=O)NCC(=O)N[C@@H](CCCCN)C(=O)N[C@@H](CC(C)C)C(=O)N[C@@H](C)C(=O)N[C@@H](CCCCN)C(=O)N[C@@H](CCC(N)=O)C(=O)N[C@@H](CCC(N)=O)C(=O)N[C@@H](CC(C)C)C(=O)N[C@@H](C)C(=O)N[C@@H](CCCCN)C(=O)N[C@@H](CC(C)C)C(N)=O)[C@@H](C)O [IWLTALKFLGKNLGKLAKQQLAKL]

MIC (Staphylococcus aureus): > 145 µM | MIC (Vibrio fluvialis): ≥ 72.4 µM | MIC (Streptococcus pyogenes): ≥ 72.4 µM | MIC (Escherichia coli): > 145 µM | MIC (Vibrio alginolyticus): 18.1 µM (≈ 31.3 µg/mL) | MIC (Aeromonas hydrophila): 18.1 µM (≈ 31.3 µg/mL)
Structure (SMILES): CC[C@H](C)[C@H](NC(=O)[C@H](C)NC(=O)[C@H](CC(=O)O)NC(=O)[C@H](CCCN=C(N)N)NC(=O)[C@@H](NC(=O)[C@@H](N)CCCN=C(N)N)[C@@H](C)CC)C(=O)N[C@@H](C)C(=O)N[C@@H](Cc1cnc[nH]1)C(=O)NCC(=O)N[C@@H](Cc1ccc(O)cc1)C(=O)N[C@H](C(=O)N[C@H](C(=O)N[C@@H](CC(=O)O)C(=O)N[C@@H](CCCCN)C(=O)N[C@H](C(=O)O)C(C)C)C(C)C)[C@@H](C)CC [RIRDAIAHGYIVDKV]
MIC (Vibrio parahaemolyticus): ≥ 145 µM

MIC [12]: 1.6 µM (≈ 3.36 µg/mL) | MIC [13]: 6.25 µM (≈ 13.1 µg/mL) | MIC [14]: 3.1 µM (≈ 6.51 µg/mL) | MIC [15]: 7 µM and 3.1 µM | MIC [16]: 6.25 µM (≈ 13.1 µg/mL) | MIC (Escherichia coli K-12): 7.5 µM and 14 µM | MIC [17]: 1.6 µM and 4 µM | MIC [18]: 16 µM (≈ 33.6 µg/mL) | MIC [19]: 6.25 µM (≈ 13.1 µg/mL) | MIC (Escherichia coli E423-17): 16 µM (≈ 33.6 µg/mL) | MIC [20]: 3.12 µM (≈ 6.57 µg/mL) | MIC [21]: 6.25 µM (≈ 13.1 µg/mL) | MIC [22]: 7.5 µM and 3.1 µM and 7 µM | MIC [23]: ≥ 32 µM | MIC [24]: 6.25 µM (≈ 13.1 µg/mL) | MIC [25]: 25 µM (≈ 52.5 µg/mL) | MIC [4]: 4.4 µM (≈ 9.25 µg/mL) | MIC [26]: 2 µM (≈ 4.2 µg/mL)
Structure (SMILES): CC[C@H](C)[C@H](NC(=O)[C@H](CCCNC(=N)N)NC(=O)[C@H](CCC(N)=O)NC(=O)[C@@H](NC(=O)[C@@H](NC(=O)[C@H](CCCNC(=N)N)NC(=O)[C@H](CCCCN)NC(=O)[C@H](Cc1ccccc1)NC(=O)CN)[C@@H](C)CC)C(C)C)C(=O)N[C@@H](CCCCN)C(=O)N[C@@H](CC(=O)O)C(=O)N[C@@H](Cc1ccccc1)C(=O)N[C@@H](CC(C)C)C(=O)N[C@@H](CCCNC(=N)N)C(=O)N[C@@H](CC(N)=O)C(=O)N[C@@H](CC(C)C)C(=O)N[C@H](C(N)=O)C(C)C [GFKRIVQRIKDFLRNLV]

MIC [27]: 7.07 µM and 21.2 µM
Structure (SMILES): NCCCC[C@H](NC(=O)[C@H](CCCCN)NC(=O)[C@H](CCCN=C(N)N)NC(=O)[C@H](CCCN=C(N)N)NC(=O)[C@H](CCCN=C(N)N)NC(=O)[C@H](CCCN=C(N)N)NC(=O)[C@H](CCC(N)=O)NC(=O)[C@H](CCCN=C(N)N)NC(=O)[C@H](CCCN=C(N)N)NC(=O)[C@H](CCCCN)NC(=O)[C@H](CCCCN)NC(=O)[C@@H](N)CCCN=C(N)N)C(=O)N[C@@H](CCCN=C(N)N)C(=O)N[C@@H](CCCN=C(N)N)C(=O)N[C@@H](CCC(N)=O)C(=O)N[C@@H](CCCN=C(N)N)C(=O)N[C@@H](CCCN=C(N)N)C(=O)N[C@@H](CCCN=C(N)N)C(=O)O [RKKRRQRRRRKKRRQRRR]
